Test results published in patent US8163931B2, “Treatment of CRTH2-mediated diseases and conditions” (Oxagen Limited, priority 2003, dated 2012).

Tests used:
[1] = target: T1, CRTH2 (Homo sapiens, UniProt Q9Y5Y4); test: Calcium mobilisation assay in CHO/CRTH2 cells (PGD2-induced calcium flux); format: cell-based; conditions: for IC50: read-out: IC50, inhibition of PGD2-induced calcium flux
T1 construct: expressed in transfected cells; host or cells: Chinese Hamster Ovary (CHO) cells, G418-selected (CHO/CRTH2)
T1 sequence (Q9Y5Y4 1-395): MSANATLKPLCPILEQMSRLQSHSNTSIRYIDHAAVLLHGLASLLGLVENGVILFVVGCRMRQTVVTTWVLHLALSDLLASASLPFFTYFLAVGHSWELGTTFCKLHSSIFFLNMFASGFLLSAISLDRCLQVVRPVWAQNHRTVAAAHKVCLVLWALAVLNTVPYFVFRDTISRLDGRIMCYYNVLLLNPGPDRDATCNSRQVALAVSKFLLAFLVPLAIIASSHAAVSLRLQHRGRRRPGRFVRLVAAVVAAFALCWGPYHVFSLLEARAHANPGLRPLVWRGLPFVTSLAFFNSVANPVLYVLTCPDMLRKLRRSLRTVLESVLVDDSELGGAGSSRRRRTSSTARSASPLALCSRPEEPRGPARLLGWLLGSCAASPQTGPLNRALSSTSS
Experimental: (§1) Chinese Hamster Ovary cells were transfected with CRTH2 or DP receptors (CHO/CRTH2 and CHO/DP) and were maintained in culture in a humidified atmosphere at 37° C. (5% CO2) in Minimum Essential Medium (MEM) supplemented with 10% foetal bovine serum, 2 mM glutamine, and 1 mg ml^−1 active G418. The cells were passaged every 2-3 days. For radioligand binding assay, cells were prepared in triple-layer flasks or in 175 cm^2 square flasks (for membrane preparation). For calcium mobilisation assay, cells were grown in a 96 well plate 24 h prior to the assay at a density of 80,000 cells per well.
Cells were seeded onto poly-D-lysine coated 96-well plates at a density of 80,000 cells per well and incubated at 37° C. overnight to allow the cells to adhere. Cells were washed twice with HBSS and incubated for 1 h at 37° C. in 100 μl HBSS and 100 μl calcium-3-dye (Molecular Devices), supplemented with 4 mM probenecid. Changes in fluorescence were monitored over a 50 s time course with agonist addition at 17 s using a Flexstation (Molecular Devices).

[2] = target: T2, DP receptor (Homo sapiens, UniProt Q13258); test: [3H]PGD2 radioligand binding on CHO/DP cell membranes; conditions: competition versus [3H]PGD2, CHO/DP membranes
T2 construct: expressed in transfected cells; host or cells: Chinese Hamster Ovary (CHO) cells, G418-selected (CHO/DP)
T2 sequence (Q13258 1-359): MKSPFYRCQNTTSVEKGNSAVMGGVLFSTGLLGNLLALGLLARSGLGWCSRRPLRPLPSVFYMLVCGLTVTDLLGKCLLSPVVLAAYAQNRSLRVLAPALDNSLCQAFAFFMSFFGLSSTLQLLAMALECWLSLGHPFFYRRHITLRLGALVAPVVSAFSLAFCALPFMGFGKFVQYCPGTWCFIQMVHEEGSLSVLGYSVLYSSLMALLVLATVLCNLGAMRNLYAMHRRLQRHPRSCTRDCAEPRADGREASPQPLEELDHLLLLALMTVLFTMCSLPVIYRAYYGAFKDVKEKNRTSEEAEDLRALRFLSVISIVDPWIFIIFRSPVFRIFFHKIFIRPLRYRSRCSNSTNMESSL
Experimental: as §1
(§2) Membranes were prepared either from CHO/CRTH2 and CHO/DP cells, or from platelets (as a source of TP receptors). CHO cells grown to confluency were washed with PBS and detached using a Versene solution (15 ml per flask). When the cells were grown in 175 cm^2 square flask, they were collected by scrapping in PBS. The cell suspensions were centrifuged (1,700 rpm, 10 min, 4° C.) and resuspended in 15 ml of buffer (1×HBSS, supplemented with 10 mM HEPES, pH 7.3). Cell suspensions were then homogenised using an Ultra Turrax at setting 4-6 for 20 s. The homogenate was centrifuged at 1,700 rpm for 10 min and the supernatant was collected and centrifuged at 20,000 rpm for 1 h at 4° C. The resulting pellet was resuspended in buffer and stored at −80° C. in aliquots of 200-500 μl. The protein concentration was determined by the method of Bradford (1976), using bovine serum albumin as standard. The platelets were washed by centrifugation at 600×g for 10 min and resuspended in ice-cold assay buffer (10 mM Tris-HCl, pH 7.4, 5 mM Glucose, 120 mM NaCl, 10 μM indomethacin) and directly centrifuged at 20,000 rpm for 30 min at 4° C. The resulting pellet was treated as described above.
(§3) [^3H]PGD2 (160 Ci/mmol) binding experiments were performed on membranes prepared as described above. Assays were performed in a final volume of 100 μl of buffer (1×HBSS/HEPES 10 mM, pH 7.3). Cell membranes (15 μg). Cell membranes […] were preincubated at room temperature with varying concentration of competing ligand for 15 min. [^3H]PGD2 (mol, final concentration) was then added and the incubation continued for a further one hour at room temperature. The reaction was terminated by the addition of 200 μl ice-cold assay buffer to each well, followed by rapid filtration through Whatman GF/B glass fibre filters using a Unifilter Cell harvester (PerkinElmer Life Sciences) and six washes of 300 μl of ice-cold buffer. The Unifilter plates were dried at room temperature for at least 1 h and the radioactivity retained on the filters was determined on a Beta Trilux counter (PerkinElmer Life Sciences), following addition of 40 μl of Optiphase Hi-Safe 3 (Wallac) liquid scintillation. Non specific binding was defined in the presence of 10 μM unlabelled PGD2. Assays were performed in duplicate.

[3] = target: T1, CRTH2; test: [3H]PGD2 radioligand binding on CHO/CRTH2 cell membranes; conditions: competition versus [3H]PGD2, CHO/CRTH2 membranes
Experimental: as §1, §2, §3

SMILES	IC50 [1]	Ki [2]	Ki [3]	EC50 ([1]; agonist, n=3, read-out: EC50, increase in intracellular Ca2+ mobilisation)
Cc1c(C(C)c2ccc(S(C)(=O)=O)cc2)c2cc(F)ccc2n1CC(=O)O (stereo not shown) [Compound 4, {5-Fluoro-3-[1-(4-methanesulfonyl-phenyl)-ethyl]-2-methyl-indol-1-yl}-acetic acid]	0.055 ± 0.018 µM	30.4 ± 9.81 µM	0.005 ± 0.004 µM	
O=C(O)Cn1cc(Cc2nc3c(F)c(F)cc(F)c3s2)c2ccccc21 [Compound 20, [3-(4,5,7-Trifluoro-benzothiazol-2-ylmethyl)-indol-1-yl]-acetic acid, reference compound]	0.885 ± 0.096 µM	3.96 µM	0.886 ± 0.248 µM	
Cc1c(Cc2ccc3cc(F)ccc3n2)c2cc(F)ccc2n1CC(=O)O [Compound 18, [5-Fluoro-3-(6-fluoro-quinolin-2-ylmethyl)-2-methyl-indol-1-yl]-acetic acid]	0.01 ± 0.005 µM	7.74 ± 1.44 µM	0.0013 ± 0.0006 µM	
CCCCC[C@H](O)/C=C/[C@H]1C(=O)C[C@H](O)[C@@H]1C/C=C\CCCC(=O)O [PGD2, prostaglandin D2, reference compound]				0.0024 ± 0.0005 µM
Cc1c(Cc2ccc(S(C)(=O)=O)cc2)c2cc(F)ccc2n1CC(=O)O [Compound 17, [5-Fluoro-3-(4-methanesulfonyl-benzyl)-2-methyl-indol-1-yl]-acetic acid]	0.064 ± 0.005 µM			
Cc1c(Cc2ccc3cccc(O)c3n2)c2cc(F)ccc2n1CC(=O)O [Compound 8, [5-Fluoro-3-(8-hydroxy-quinolin-2-ylmethyl)-2-methyl-indol-1-yl]-acetic acid]	0.011 ± 0.006 µM	7.71 ± 1.78 µM	0.006 ± 0.004 µM	

Further lines, with some results ahead:

IC50 [1]	Ki [2]	Ki [3]	SMILES	EC50 ([1]; agonist, n=3, read-out: EC50, increase in intracellular Ca2+ mobilisation)
0.038 ± 0.016 µM			Cc1c(Cc2ccc3ccccc3c2)c2cc(F)ccc2n1CC(=O)O [Compound 7, (5-Fluoro-2-methyl-3-naphthalen-2-ylmethyl-indol-1-yl)-acetic acid]	
		0.006 ± 0.001 µM	Cc1c(Cc2nc3ccccc3s2)c2cc(F)ccc2n1CC(=O)O [Compound 13, (3-Benzothiazol-2-ylmethyl-5-fluoro-2-methyl-indol-1-yl)-acetic acid]	
0.108 ± 0.029 µM	12.2 ± 2.25 µM	0.011 ± 0.002 µM	Cc1c(Cc2ccc(Cl)cc2)c2cc(F)ccc2n1CC(=O)O [Compound 12, [3-(4-Chloro-benzyl)-5-fluoro-2-methyl-indol-1-yl]-acetic acid]	
0.047 ± 0.008 µM			COc1ccc(Cc2c(C)n(CC(=O)O)c3ccc(F)cc23)cc1 [Compound 10, [5-Fluoro-3-(4-methoxy-benzyl)-2-methyl-indol-1-yl]-acetic acid]	
0.034 ± 0.007 µM			Cc1c(C(C)c2nc3ccccc3s2)c2cc(F)ccc2n1CC(=O)O (racemic) [Compound 19, (±)-3-(1-Benzothiazol-2-yl-ethyl)-5-fluoro-2-methyl-indol-1-yl]-acetic acid]	
	17.9 ± 7.29 µM		Cc1c(Cc2ccc3ccccc3n2)c2cc(F)ccc2n1CC(=O)O [Compound 6, (5-Fluoro-2-methyl-3-quinolin-2-ylmethyl-indol-1-yl)-acetic acid]	
